Source: patent publication US10774113B2, “Anti-infective compound” (priority 2015, dated 2020)

Test system: Staphylococcus aureus USA 300 (LAC)
Assay: MIC assay
Type: cell-based
Description: MIC determinations and killing assays were performed in Mueller Hinton Broth (MHB; Roth, Karlsruhe, Germany).
S. aureus RN4220, S. aureus USA300 (LAC), S. aureus USA300 (NRS384), S. aureus SA113, S. aureus Mu50, E. coli DH5α and P. aeruginosa PAO1 were grown overnight in MHB. […] All strains were incubated at 37° C. under continuous shaking. Early log-phase grown bacteria were adjusted in MHB to 1×10^6 cells/well in microtiter plates (MTP), mixed with varying concentrations of the antibiotic and incubated at 37° C. for 24 h under continuous shaking. […] The assays were performed in 96-well microtiter plates.
MIC assays for the antibiotics used in this study were performed as described above. […] Fresh MHB was inoculated 1:10,000 with an overnight culture of S. aureus USA300 LAC and was incubated at 37° C. under continuous shaking. Cells were grown to early log phase, adjusted to 1×10^6 cells/mL, and dispensed into 96-well MTPs with 100 μL per well. […] After 24 h incubation at 37° C. under continuous shaking, growth was determined with a microplate reader at an OD600 and cells from the second highest concentration of 0.25×MIC, 0.5×MIC, 1×MIC, 1.5×MIC, 2×MIC and 4×MIC from the appropriate antibiotic.

## CO[C@H]1/C=C/O[C@@]2(C)Oc3c(C)c(O)c4c(O)c(c(/C=N/N5CCN(C)CC5)c(O)c4c3C2=O)NC(=O)/C(C)=C\C=C\[C@H](C)[C@H](O)[C@@H](C)[C@@H](O)[C@@H](C)[C@H](OC(C)=O)[C@@H]1C [rifampicin]
  1×MIC against S. aureus USA300: 0.01 µg/mL
